# Laboratory results: the supplement of paper PMC12205070
# ± gives the standard deviation of the averaged measurements.
# Key:
# Assay in all cases: normalised number of viable cells after treatment (fraction of control); higher = more viable cells (less drug effect)
# P2 Initial = tested on: P2 Initial (T-ALL xenograft cells from diagnosis)
# Description: (§1)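 T-ALL PDX-derived cells (initial diagnosis or relapse samples of individual patients) co-cultured on hTERT-immortalized bone marrow MSCs in 384-well plates were treated with Cytarabine, Venetoclax, S-63845, A1331852 or FX1 (0.1 nM to 10,000 nM) for 72 h.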
# P1 Relapse = tested on: P1 Relapse (T-ALL xenograft cells from relapse)
# Description: as §1
# P10 Relapse = tested on: P10 Relapse (T-ALL xenograft cells from relapse)
# Description: as §1
# P8 Relapse = tested on: P8 Relapse (T-ALL xenograft cells from relapse)
# Description: as §1
# P12 Relapse = tested on: P12 Relapse (T-ALL xenograft cells from relapse)
# Description: as §1
# P8 Initial = tested on: P8 Initial (T-ALL xenograft cells from diagnosis)
# Description: as §1
# P6 Initial = tested on: P6 Initial (T-ALL xenograft cells from diagnosis)
# Description: as §1
# P10 Initial = tested on: P10 Initial (T-ALL xenograft cells from diagnosis)
# Description: as §1
# P6 Relapse = tested on: P6 Relapse (T-ALL xenograft cells from relapse)
# Description: as §1
# P1 Initial = tested on: P1 Initial (T-ALL xenograft cells from diagnosis)
# Description: as §1
# P12 Initial = tested on: P12 Initial (T-ALL xenograft cells from diagnosis)
# Description: as §1
# P2 Relapse = tested on: P2 Relapse (T-ALL xenograft cells from relapse)
# Description: as §1
structure (smiles),measurement,setting,value
Cc1c(-c2c(-c3ccc(F)o3)sc3ncnc(O[C@H](Cc4ccccc4OCc4ccnn4CC(F)(F)F)C(=O)O)c23)ccc(OCCN2CCN(C)CC2)c1Cl,normalised number of viable cells,P2 Initial; 0.13 nM,0.99 ± 0.072
same,normalised number of viable cells,P2 Initial; 1.25 nM,0.918 ± 0.011
same,normalised number of viable cells,P2 Initial; 31.25 nM,0.86 ± 0.03
same,normalised number of viable cells,P2 Initial; 625 nM,0.197 ± 0.0014
same,normalised number of viable cells,P2 Initial; 10000 nM,0.129 ± 0.0078
same,normalised number of viable cells,P1 Relapse; 0.13 nM,1.26 ± 0.0092
same,normalised number of viable cells,P1 Relapse; 1.25 nM,1.15 ± 0.079
same,normalised number of viable cells,P1 Relapse; 31.25 nM,0.987 ± 0.0057
same,normalised number of viable cells,P1 Relapse; 625 nM,0.131 ± 0.021
same,normalised number of viable cells,P1 Relapse; 10000 nM,0.039 ± 0.027
same,normalised number of viable cells,P10 Relapse; 0.13 nM,1.02 ± 0.019
same,normalised number of viable cells,P10 Relapse; 1.25 nM,1.15 ± 0.12
same,normalised number of viable cells,P10 Relapse; 31.25 nM,1.08 ± 0.025
same,normalised number of viable cells,P10 Relapse; 625 nM,0.785 ± 0.053
same,normalised number of viable cells,P10 Relapse; 10000 nM,0.0695 ± 0.057
same,normalised number of viable cells,P8 Relapse; 0.13 nM,0.992 ± 0.045
same,normalised number of viable cells,P8 Relapse; 1.25 nM,1.05 ± 0.021
same,normalised number of viable cells,P8 Relapse; 31.25 nM,1.02 ± 0.024
same,normalised number of viable cells,P8 Relapse; 625 nM,0.9355 ± 0.0092
same,normalised number of viable cells,P8 Relapse; 10000 nM,0.0655 ± 0.005
same,normalised number of viable cells,P12 Relapse; 0.13 nM,0.277 ± 0.23
same,normalised number of viable cells,P12 Relapse; 1.25 nM,1.52 ± 2
same,normalised number of viable cells,P12 Relapse; 31.25 nM,0.199 ± 0.023
same,normalised number of viable cells,P12 Relapse; 625 nM,0.048 ± 0.0042
same,normalised number of viable cells,P12 Relapse; 10000 nM,0.0695 ± 0.012
same,normalised number of viable cells,P8 Initial; 0.13 nM,1.09 ± 0.16
same,normalised number of viable cells,P8 Initial; 1.25 nM,1.08 ± 0.052
same,normalised number of viable cells,P8 Initial; 31.25 nM,1.04 ± 0.04
same,normalised number of viable cells,P8 Initial; 625 nM,0.54 ± 0.33
same,normalised number of viable cells,P8 Initial; 10000 nM,0.0315 ± 0.0035
same,normalised number of viable cells,P6 Initial; 0.13 nM,1.02 ± 0.047
same,normalised number of viable cells,P6 Initial; 1.25 nM,1.08 ± 0.057
same,normalised number of viable cells,P6 Initial; 31.25 nM,0.638 ± 0.013
same,normalised number of viable cells,P6 Initial; 625 nM,0.0605 ± 0.0064
same,normalised number of viable cells,P6 Initial; 10000 nM,0.022 ± 0.0014
same,normalised number of viable cells,P10 Initial; 0.13 nM,1.29 ± 0.1
same,normalised number of viable cells,P10 Initial; 1.25 nM,1.17 ± 0.059
same,normalised number of viable cells,P10 Initial; 31.25 nM,0.639 ± 0.023
same,normalised number of viable cells,P10 Initial; 625 nM,0.225 ± 0.053
same,normalised number of viable cells,P10 Initial; 10000 nM,0.0835 ± 0.05
same,normalised number of viable cells,P6 Relapse; 0.13 nM,1.07 ± 0.073
same,normalised number of viable cells,P6 Relapse; 1.25 nM,0.884 ± 0.15
same,normalised number of viable cells,P6 Relapse; 31.25 nM,1.02 ± 0.033
same,normalised number of viable cells,P6 Relapse; 625 nM,0.483 ± 0.077
same,normalised number of viable cells,P6 Relapse; 10000 nM,0.035 ± 0.0028
same,normalised number of viable cells,P1 Initial; 0.125 nM,1.16 ± 0.066
same,normalised number of viable cells,P1 Initial; 1 nM,1.05 ± 0.12
same,normalised number of viable cells,P1 Initial; 12.5 nM,0.838 ± 0.043
same,normalised number of viable cells,P1 Initial; 100 nM,0.231 ± 0.005
same,normalised number of viable cells,P1 Initial; 1250 nM,0.054 ± 0.0057
same,normalised number of viable cells,P1 Initial; 10000 nM,0.0485 ± 0.00071
same,normalised number of viable cells,P12 Initial; 0.13 nM,1.05 ± 0.34
same,normalised number of viable cells,P12 Initial; 1.25 nM,0.991 ± 0.013
same,normalised number of viable cells,P12 Initial; 31.25 nM,0.58 ± 0.12
same,normalised number of viable cells,P12 Initial; 625 nM,0.337 ± 0.0092
same,normalised number of viable cells,P12 Initial; 10000 nM,0.0575 ± 0.013
same,normalised number of viable cells,P2 Relapse; 0.13 nM,1.05 ± 0.032
same,normalised number of viable cells,P2 Relapse; 1.25 nM,1.04 ± 0.011
same,normalised number of viable cells,P2 Relapse; 31.25 nM,0.878 ± 0.073
same,normalised number of viable cells,P2 Relapse; 625 nM,0.7035 ± 0.0035
same,normalised number of viable cells,P2 Relapse; 10000 nM,0.068 ± 0.0028
Cc1c(-c2ccc(N3CCc4cccc(C(=O)Nc5nc6ccccc6s5)c4C3)nc2C(=O)O)cnn1CC12CC3CC(CC(C3)C1)C2,normalised number of viable cells,P2 Initial; 0.13 nM,0.972 ± 0.078
same,normalised number of viable cells,P2 Initial; 1.25 nM,0.785 ± 0.0028
same,normalised number of viable cells,P2 Initial; 31.25 nM,0.5015 ± 0.0021
same,normalised number of viable cells,P2 Initial; 625 nM,0.407 ± 0.047
same,normalised number of viable cells,P2 Initial; 10000 nM,0.2125 ± 0.0021
same,normalised number of viable cells,P1 Relapse; 0.13 nM,1.092 ± 0.0085
same,normalised number of viable cells,P1 Relapse; 1.25 nM,1 ± 0.038
same,normalised number of viable cells,P1 Relapse; 31.25 nM,0.758 ± 0.049
same,normalised number of viable cells,P1 Relapse; 625 nM,0.443 ± 0.23
same,normalised number of viable cells,P1 Relapse; 10000 nM,0.104 ± 0.0035
same,normalised number of viable cells,P10 Relapse; 0.13 nM,0.98 ± 0.052
same,normalised number of viable cells,P10 Relapse; 1.25 nM,0.69 ± 0.037
same,normalised number of viable cells,P10 Relapse; 31.25 nM,0.547 ± 0.048
same,normalised number of viable cells,P10 Relapse; 625 nM,0.341 ± 0.02
same,normalised number of viable cells,P10 Relapse; 10000 nM,0.149 ± 0.042
same,normalised number of viable cells,P8 Relapse; 0.13 nM,0.838 ± 0.025
same,normalised number of viable cells,P8 Relapse; 1.25 nM,0.861 ± 0.057
same,normalised number of viable cells,P8 Relapse; 31.25 nM,0.721 ± 0.093
same,normalised number of viable cells,P8 Relapse; 625 nM,0.515 ± 0.016
same,normalised number of viable cells,P8 Relapse; 10000 nM,0.321 ± 0.035
same,normalised number of viable cells,P12 Relapse; 0.13 nM,2.48 ± 0.47
same,normalised number of viable cells,P12 Relapse; 1.25 nM,0.433 ± 0.4
same,normalised number of viable cells,P12 Relapse; 31.25 nM,0.132 ± 0.025
same,normalised number of viable cells,P12 Relapse; 625 nM,0.075
same,normalised number of viable cells,P12 Relapse; 10000 nM,0.0555 ± 0.0078
same,normalised number of viable cells,P8 Initial; 0.13 nM,1.17 ± 0.086
same,normalised number of viable cells,P8 Initial; 1.25 nM,0.883 ± 0.057
same,normalised number of viable cells,P8 Initial; 31.25 nM,0.704 ± 0.0071
same,normalised number of viable cells,P8 Initial; 625 nM,0.673
same,normalised number of viable cells,P8 Initial; 10000 nM,0.4885 ± 0.0021
same,normalised number of viable cells,P6 Initial; 0.13 nM,0.809 ± 0.016
same,normalised number of viable cells,P6 Initial; 1.25 nM,0.331 ± 0.016
same,normalised number of viable cells,P6 Initial; 31.25 nM,0.037 ± 0.0042
same,normalised number of viable cells,P6 Initial; 625 nM,0.023 ± 0.0042
same,normalised number of viable cells,P6 Initial; 10000 nM,0.0205 ± 0.0021
same,normalised number of viable cells,P10 Initial; 0.13 nM,0.894 ± 0.037
same,normalised number of viable cells,P10 Initial; 1.25 nM,0.32 ± 0.039
same,normalised number of viable cells,P10 Initial; 31.25 nM,0.163 ± 0.055
same,normalised number of viable cells,P10 Initial; 625 nM,0.0735 ± 0.033
same,normalised number of viable cells,P10 Initial; 10000 nM,0.031 ± 0.0042
same,normalised number of viable cells,P6 Relapse; 0.13 nM,0.953 ± 0.0085
same,normalised number of viable cells,P6 Relapse; 1.25 nM,0.907 ± 0.037
same,normalised number of viable cells,P6 Relapse; 31.25 nM,0.827 ± 0.039
same,normalised number of viable cells,P6 Relapse; 625 nM,0.883 ± 0.033
same,normalised number of viable cells,P6 Relapse; 10000 nM,0.834 ± 0.016
same,normalised number of viable cells,P1 Initial; 0.125 nM,1.07 ± 0.055
same,normalised number of viable cells,P1 Initial; 1 nM,0.741 ± 0.22
same,normalised number of viable cells,P1 Initial; 12.5 nM,0.429 ± 0.0092
same,normalised number of viable cells,P1 Initial; 100 nM,0.38 ± 0.054
same,normalised number of viable cells,P1 Initial; 1250 nM,0.172 ± 0.015
same,normalised number of viable cells,P1 Initial; 10000 nM,0.0585 ± 0.023
same,normalised number of viable cells,P12 Initial; 0.13 nM,0.976 ± 0.26
same,normalised number of viable cells,P12 Initial; 1.25 nM,0.093 ± 0.0014
same,normalised number of viable cells,P12 Initial; 31.25 nM,0.151 ± 0.16
same,normalised number of viable cells,P12 Initial; 625 nM,0.084
same,normalised number of viable cells,P12 Initial; 10000 nM,0.054 ± 0.0085
same,normalised number of viable cells,P2 Relapse; 0.13 nM,0.839 ± 0.042
same,normalised number of viable cells,P2 Relapse; 1.25 nM,0.588 ± 0.016
same,normalised number of viable cells,P2 Relapse; 31.25 nM,0.115 ± 0.0085
same,normalised number of viable cells,P2 Relapse; 625 nM,0.0705 ± 0.0035
same,normalised number of viable cells,P2 Relapse; 10000 nM,0.0555 ± 0.0078
